Test results from publication PMC7385619, “A triple action CDK4/6-PI3K-BET inhibitor with augmented cancer cell cytotoxicity” (Cell Discovery, 2020).

Tests used:
Assay in all cases: KINOMEscan assay (Eurofins DiscoverX)
Assay type in all cases: binding
[1] = target: T1, kinome (kinase panel) (Homo sapiens, UniProt Q9NYL2); details: ZAK; 1000 nM; read-out: Percent Control
T1 construct: purchased Eurofins DiscoverX

[2] = target: T2, kinome (kinase panel) (Homo sapiens, UniProt Q02750); details: MEK1 (Entrez MAP2K1); 1000 nM; read-out: Percent Control
T2 construct: purchased Eurofins DiscoverX

[3] = target: T3, kinome (kinase panel) (Homo sapiens, UniProt O43283); details: LZK (Entrez MAP3K13); 1000 nM; read-out: Percent Control
T3 construct: purchased Eurofins DiscoverX

[4] = target: T4, kinome (kinase panel) (Homo sapiens, UniProt P08581); details: MET; 1000 nM; read-out: Percent Control
T4 construct: purchased Eurofins DiscoverX

[5] = target: T5, kinome (kinase panel) (Homo sapiens, UniProt Q8NFD2); details: ANKK1; 1000 nM; read-out: Percent Control
T5 construct: purchased Eurofins DiscoverX

[6] = target: T6, kinome (kinase panel) (Homo sapiens, UniProt P36888, D835H); details: […]; 1000 nM; read-out: Percent Control
T6 construct: purchased Eurofins DiscoverX

[7] = target: T7, kinome (kinase panel) (Homo sapiens, UniProt P48730); details: CSNK1D; 1000 nM; read-out: Percent Control
T7 construct: purchased Eurofins DiscoverX

[8] = target: T8, kinome (kinase panel) (Homo sapiens, UniProt Q96L34); details: MARK4; 1000 nM; read-out: Percent Control
T8 construct: purchased Eurofins DiscoverX

[9] = target: T9, kinome (kinase panel) (Homo sapiens, UniProt P14616); details: INSRR; 1000 nM; read-out: Percent Control
T9 construct: purchased Eurofins DiscoverX

[10] = target: T10, kinome (kinase panel) (Homo sapiens, UniProt Q9BUB5); details: MKNK1; 1000 nM; read-out: Percent Control
T10 construct: purchased Eurofins DiscoverX

[11] = target: T11, kinome (kinase panel) (Homo sapiens, UniProt Q15759); details: p38-beta (Entrez MAPK11); 1000 nM; read-out: Percent Control
T11 construct: purchased Eurofins DiscoverX

[12] = target: T12, kinome (kinase panel) (Mycobacterium tuberculosis, UniProt P9WI81); details: PKNB(M.tuberculosis) (Entrez pknB); 1000 nM; read-out: Percent Control
T12 construct: purchased Eurofins DiscoverX

[13] = target: T13, kinome (kinase panel) (Homo sapiens, UniProt P35590); details: TIE1; 1000 nM; read-out: Percent Control
T13 construct: purchased Eurofins DiscoverX

[14] = target: T14, kinome (kinase panel) (Homo sapiens, UniProt Q8TDR2); details: STK35; 1000 nM; read-out: Percent Control
T14 construct: purchased Eurofins DiscoverX

[15] = target: T15, kinome (kinase panel) (Homo sapiens, UniProt Q14012); details: CAMK1; 1000 nM; read-out: Percent Control
T15 construct: purchased Eurofins DiscoverX

[16] = target: T16, kinome (kinase panel) (Homo sapiens, UniProt P22455); details: FGFR4; 1000 nM; read-out: Percent Control
T16 construct: purchased Eurofins DiscoverX

[17] = target: T17, kinome (kinase panel) (Homo sapiens, UniProt Q04771); details: ACVR1; 1000 nM; read-out: Percent Control
T17 construct: purchased Eurofins DiscoverX

[18] = target: T18, kinome (kinase panel) (Homo sapiens, UniProt P45985); details: MEK4 (Entrez MAP2K4); 1000 nM; read-out: Percent Control
T18 construct: purchased Eurofins DiscoverX

[19] = target: T19, kinome (kinase panel) (Homo sapiens, UniProt P49336); details: CDK8; 1000 nM; read-out: Percent Control
T19 construct: purchased Eurofins DiscoverX

[20] = target: T20, kinome (kinase panel) (Homo sapiens, UniProt P21860); details: ERBB3; 1000 nM; read-out: Percent Control
T20 construct: purchased Eurofins DiscoverX

[21] = target: T21, kinome (kinase panel) (Homo sapiens, UniProt P36888, R834Q); details: […]; 1000 nM; read-out: Percent Control
T21 construct: purchased Eurofins DiscoverX

[22] = target: T22, kinome (kinase panel) (Homo sapiens, UniProt Q9BRS2); details: RIOK1; 1000 nM; read-out: Percent Control
T22 construct: purchased Eurofins DiscoverX

[23] = target: T23, kinome (kinase panel) (Homo sapiens, UniProt P19525); details: PRKR (Entrez EIF2AK2); 1000 nM; read-out: Percent Control
T23 construct: purchased Eurofins DiscoverX

[24] = target: T24, kinome (kinase panel) (Homo sapiens, UniProt P04049); details: RAF1; 1000 nM; read-out: Percent Control
T24 construct: purchased Eurofins DiscoverX

[25] = target: T25, kinome (kinase panel) (Homo sapiens, UniProt O60674); details: JAK2(JH1domain-catalytic); 1000 nM; read-out: Percent Control
T25 construct: purchased Eurofins DiscoverX

[26] = target: T26, kinome (kinase panel) (Homo sapiens, UniProt P51955); details: NEK2; 1000 nM; read-out: Percent Control
T26 construct: purchased Eurofins DiscoverX

[27] = target: T27, kinome (kinase panel) (Homo sapiens, UniProt Q6ZN16); details: MAP3K15; 1000 nM; read-out: Percent Control
T27 construct: purchased Eurofins DiscoverX

[28] = target: T28, kinome (kinase panel) (Homo sapiens, UniProt Q14289); details: PYK2 (Entrez PTK2B); 1000 nM; read-out: Percent Control
T28 construct: purchased Eurofins DiscoverX

[29] = target: T29, kinome (kinase panel) (Homo sapiens, UniProt Q13627); details: DYRK1A; 1000 nM; read-out: Percent Control
T29 construct: purchased Eurofins DiscoverX

[30] = target: T30, kinome (kinase panel) (Homo sapiens, UniProt P12931); details: SRC; 1000 nM; read-out: Percent Control
T30 construct: purchased Eurofins DiscoverX

[31] = target: T31, kinome (kinase panel) (Homo sapiens, UniProt Q13153); details: PAK1; 1000 nM; read-out: Percent Control
T31 construct: purchased Eurofins DiscoverX

[32] = target: T32, kinome (kinase panel) (Homo sapiens, UniProt Q13882); details: BRK (Entrez PTK6); 1000 nM; read-out: Percent Control
T32 construct: purchased Eurofins DiscoverX

T18 sequence (P45985 whole entry): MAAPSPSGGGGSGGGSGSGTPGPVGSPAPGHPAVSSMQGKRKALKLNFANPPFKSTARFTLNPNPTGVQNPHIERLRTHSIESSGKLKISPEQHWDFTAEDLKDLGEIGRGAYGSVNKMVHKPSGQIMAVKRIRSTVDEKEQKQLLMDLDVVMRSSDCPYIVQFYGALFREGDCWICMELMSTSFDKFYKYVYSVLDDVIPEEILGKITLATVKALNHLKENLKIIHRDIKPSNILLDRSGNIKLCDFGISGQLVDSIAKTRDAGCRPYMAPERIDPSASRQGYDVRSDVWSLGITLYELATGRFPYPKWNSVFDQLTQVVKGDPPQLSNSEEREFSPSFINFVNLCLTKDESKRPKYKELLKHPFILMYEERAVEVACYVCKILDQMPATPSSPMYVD
T4 sequence (P08581 25-1390): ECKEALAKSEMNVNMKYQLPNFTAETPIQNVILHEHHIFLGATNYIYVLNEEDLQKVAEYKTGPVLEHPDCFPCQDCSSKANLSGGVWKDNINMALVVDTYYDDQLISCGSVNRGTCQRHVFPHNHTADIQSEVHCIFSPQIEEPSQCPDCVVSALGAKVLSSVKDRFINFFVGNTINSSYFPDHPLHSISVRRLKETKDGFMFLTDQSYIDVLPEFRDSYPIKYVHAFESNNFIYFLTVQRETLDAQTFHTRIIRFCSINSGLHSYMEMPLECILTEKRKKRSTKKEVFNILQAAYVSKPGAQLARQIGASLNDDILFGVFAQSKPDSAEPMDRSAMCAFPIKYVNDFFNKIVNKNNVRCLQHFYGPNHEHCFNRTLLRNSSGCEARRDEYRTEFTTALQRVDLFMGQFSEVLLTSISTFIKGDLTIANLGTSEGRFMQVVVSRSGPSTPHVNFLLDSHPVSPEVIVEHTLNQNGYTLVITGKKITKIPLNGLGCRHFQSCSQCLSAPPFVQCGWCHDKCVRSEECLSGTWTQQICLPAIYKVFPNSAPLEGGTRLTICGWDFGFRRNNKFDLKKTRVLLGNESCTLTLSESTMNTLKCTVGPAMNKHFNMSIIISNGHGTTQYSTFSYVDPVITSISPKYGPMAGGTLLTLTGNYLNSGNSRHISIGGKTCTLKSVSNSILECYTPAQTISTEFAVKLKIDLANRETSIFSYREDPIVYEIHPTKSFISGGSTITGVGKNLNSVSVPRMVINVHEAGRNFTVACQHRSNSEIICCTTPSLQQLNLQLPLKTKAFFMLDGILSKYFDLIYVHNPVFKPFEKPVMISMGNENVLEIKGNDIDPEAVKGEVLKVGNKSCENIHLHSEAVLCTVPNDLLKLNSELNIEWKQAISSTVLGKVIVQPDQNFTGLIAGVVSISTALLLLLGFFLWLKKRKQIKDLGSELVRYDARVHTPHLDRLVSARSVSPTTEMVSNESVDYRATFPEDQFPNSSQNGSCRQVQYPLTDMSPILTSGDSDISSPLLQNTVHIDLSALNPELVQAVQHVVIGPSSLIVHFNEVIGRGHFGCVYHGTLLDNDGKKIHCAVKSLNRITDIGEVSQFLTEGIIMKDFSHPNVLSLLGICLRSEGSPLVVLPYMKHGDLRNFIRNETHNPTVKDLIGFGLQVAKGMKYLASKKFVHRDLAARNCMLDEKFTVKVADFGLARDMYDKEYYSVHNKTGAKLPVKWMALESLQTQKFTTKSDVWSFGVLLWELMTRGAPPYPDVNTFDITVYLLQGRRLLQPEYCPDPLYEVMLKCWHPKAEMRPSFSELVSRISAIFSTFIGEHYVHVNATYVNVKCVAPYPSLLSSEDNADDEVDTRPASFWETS
T13 sequence (P35590 22-1138): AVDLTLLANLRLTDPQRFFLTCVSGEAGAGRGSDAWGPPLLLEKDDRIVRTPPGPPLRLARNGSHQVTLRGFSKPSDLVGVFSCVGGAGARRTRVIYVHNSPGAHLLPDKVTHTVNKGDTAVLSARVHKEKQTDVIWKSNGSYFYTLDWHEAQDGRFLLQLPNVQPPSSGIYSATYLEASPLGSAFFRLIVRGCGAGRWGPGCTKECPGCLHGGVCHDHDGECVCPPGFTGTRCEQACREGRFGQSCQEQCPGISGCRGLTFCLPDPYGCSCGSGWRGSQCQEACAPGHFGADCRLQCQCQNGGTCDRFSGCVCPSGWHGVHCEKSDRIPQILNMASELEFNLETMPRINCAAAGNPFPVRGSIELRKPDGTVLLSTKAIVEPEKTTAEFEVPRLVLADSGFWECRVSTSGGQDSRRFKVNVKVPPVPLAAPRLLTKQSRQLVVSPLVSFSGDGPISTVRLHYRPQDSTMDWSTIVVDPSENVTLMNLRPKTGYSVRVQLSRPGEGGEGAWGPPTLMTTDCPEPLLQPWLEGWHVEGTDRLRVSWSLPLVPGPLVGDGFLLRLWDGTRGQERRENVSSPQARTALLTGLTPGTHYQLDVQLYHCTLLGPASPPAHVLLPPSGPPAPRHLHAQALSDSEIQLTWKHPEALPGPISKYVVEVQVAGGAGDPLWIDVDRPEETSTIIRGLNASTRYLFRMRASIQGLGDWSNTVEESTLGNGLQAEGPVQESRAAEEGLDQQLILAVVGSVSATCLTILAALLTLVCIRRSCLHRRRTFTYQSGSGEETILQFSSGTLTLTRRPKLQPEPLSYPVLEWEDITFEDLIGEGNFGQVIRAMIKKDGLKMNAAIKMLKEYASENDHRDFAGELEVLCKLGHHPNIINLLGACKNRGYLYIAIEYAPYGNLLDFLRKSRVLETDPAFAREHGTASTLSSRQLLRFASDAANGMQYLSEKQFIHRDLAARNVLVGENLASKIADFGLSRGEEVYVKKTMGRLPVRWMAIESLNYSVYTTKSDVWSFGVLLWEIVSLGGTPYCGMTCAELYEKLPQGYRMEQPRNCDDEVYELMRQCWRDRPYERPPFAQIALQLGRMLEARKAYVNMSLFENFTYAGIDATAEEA
T19 sequence (P49336 whole entry): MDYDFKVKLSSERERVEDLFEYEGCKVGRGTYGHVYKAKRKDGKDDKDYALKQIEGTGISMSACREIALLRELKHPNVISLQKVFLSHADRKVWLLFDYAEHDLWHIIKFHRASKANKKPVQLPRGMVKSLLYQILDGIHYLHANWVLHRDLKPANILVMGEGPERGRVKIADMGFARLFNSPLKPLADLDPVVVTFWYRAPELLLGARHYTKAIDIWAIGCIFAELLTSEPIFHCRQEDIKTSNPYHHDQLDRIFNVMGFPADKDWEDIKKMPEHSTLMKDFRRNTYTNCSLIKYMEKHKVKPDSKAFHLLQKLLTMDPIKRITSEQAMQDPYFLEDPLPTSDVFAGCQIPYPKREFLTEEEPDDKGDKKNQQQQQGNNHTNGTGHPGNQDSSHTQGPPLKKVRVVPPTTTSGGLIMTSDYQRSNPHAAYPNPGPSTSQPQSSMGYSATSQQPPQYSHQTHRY
T26 sequence (P51955 whole entry): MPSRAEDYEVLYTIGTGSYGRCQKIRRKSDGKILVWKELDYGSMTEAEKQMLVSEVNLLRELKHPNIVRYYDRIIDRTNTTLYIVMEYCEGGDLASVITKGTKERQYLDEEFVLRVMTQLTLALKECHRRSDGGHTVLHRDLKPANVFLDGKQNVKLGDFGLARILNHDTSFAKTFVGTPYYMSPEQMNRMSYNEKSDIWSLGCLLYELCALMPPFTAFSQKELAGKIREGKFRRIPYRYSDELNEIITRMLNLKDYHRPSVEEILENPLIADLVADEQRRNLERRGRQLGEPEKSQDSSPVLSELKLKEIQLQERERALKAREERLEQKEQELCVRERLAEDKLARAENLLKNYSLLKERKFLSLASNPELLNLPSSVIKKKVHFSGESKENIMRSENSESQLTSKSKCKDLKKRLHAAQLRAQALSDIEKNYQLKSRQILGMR
T9 sequence (P14616 27-1297): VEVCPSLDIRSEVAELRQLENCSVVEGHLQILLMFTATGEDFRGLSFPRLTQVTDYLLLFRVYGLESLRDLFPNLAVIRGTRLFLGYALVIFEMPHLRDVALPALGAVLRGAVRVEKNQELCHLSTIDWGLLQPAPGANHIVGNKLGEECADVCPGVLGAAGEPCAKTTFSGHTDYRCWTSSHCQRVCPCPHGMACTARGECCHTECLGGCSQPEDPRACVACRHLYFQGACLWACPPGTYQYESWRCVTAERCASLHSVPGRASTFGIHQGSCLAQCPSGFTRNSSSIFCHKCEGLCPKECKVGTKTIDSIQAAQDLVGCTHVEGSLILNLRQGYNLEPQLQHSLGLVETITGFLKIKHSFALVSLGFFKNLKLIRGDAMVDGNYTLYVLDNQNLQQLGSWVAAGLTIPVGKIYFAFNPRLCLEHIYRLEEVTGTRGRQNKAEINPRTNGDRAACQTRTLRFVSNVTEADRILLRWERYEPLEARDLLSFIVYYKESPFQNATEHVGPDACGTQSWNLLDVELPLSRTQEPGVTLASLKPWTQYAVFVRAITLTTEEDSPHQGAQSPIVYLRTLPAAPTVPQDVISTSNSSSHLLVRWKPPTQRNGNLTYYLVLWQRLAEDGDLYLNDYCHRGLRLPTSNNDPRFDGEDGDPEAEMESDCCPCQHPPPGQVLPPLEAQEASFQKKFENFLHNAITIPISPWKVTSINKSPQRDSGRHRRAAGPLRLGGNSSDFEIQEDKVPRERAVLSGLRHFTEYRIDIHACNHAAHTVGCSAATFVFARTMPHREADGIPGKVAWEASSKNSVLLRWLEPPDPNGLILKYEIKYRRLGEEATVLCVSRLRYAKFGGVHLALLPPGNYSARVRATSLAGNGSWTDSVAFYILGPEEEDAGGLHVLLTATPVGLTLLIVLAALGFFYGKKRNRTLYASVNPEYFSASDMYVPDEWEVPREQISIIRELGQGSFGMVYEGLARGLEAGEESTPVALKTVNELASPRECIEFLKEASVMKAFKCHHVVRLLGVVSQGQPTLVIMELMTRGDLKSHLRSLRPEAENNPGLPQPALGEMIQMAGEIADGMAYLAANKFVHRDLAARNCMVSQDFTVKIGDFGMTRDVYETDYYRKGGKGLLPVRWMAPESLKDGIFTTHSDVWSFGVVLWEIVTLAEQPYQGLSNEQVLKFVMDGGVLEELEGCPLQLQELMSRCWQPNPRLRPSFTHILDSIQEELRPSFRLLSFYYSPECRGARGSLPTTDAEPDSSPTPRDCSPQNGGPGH

CN(C)C(=O)c1cc2cnc(Nc3ccc(-c4csc5c(=O)cc(N6CCOCC6)oc45)cc3)nc2n1C1CCCC1 [SRX3177] was tested, and the remaining binding at 1 µM [1] was 80%, the remaining binding at 1 µM [2] was 68% and the remaining binding at 1 µM [3] was 48%. The remaining binding at 1 µM [4] was 80%, the remaining binding at 1 µM [5] was 50% and the remaining binding at 1 µM [6] was 8.9%. For the same molecule, the remaining binding at 1 µM [7] was 83%, the remaining binding at 1 µM [8] was 100% and the remaining binding at 1 µM [9] was 100%. The remaining binding at 1 µM [10] was 42%, the remaining binding at 1 µM [11] was 100% and the remaining binding at 1 µM [12] was 40%. For the same molecule, the remaining binding at 1 µM [13] was 77%, the remaining binding at 1 µM [14] was 100% and the remaining binding at 1 µM [15] was 51%. For the same molecule, the remaining binding at 1 µM [16] was 86%, the remaining binding at 1 µM [17] was 84% and the remaining binding at 1 µM [18] was 79%. The remaining binding at 1 µM [19] was 90%, the remaining binding at 1 µM [20] was 59% and the remaining binding at 1 µM [21] was 38%. For the same molecule, the remaining binding at 1 µM [22] was 18%, the remaining binding at 1 µM [23] was 97% and the remaining binding at 1 µM [24] was 100%. It also gave a remaining binding at 1 µM [25] of 34%, a remaining binding at 1 µM [26] of 90% and a remaining binding at 1 µM [27] of 100%. It also gave a remaining binding at 1 µM [28] of 100%, a remaining binding at 1 µM [29] of 60% and a remaining binding at 1 µM [30] of 74%. It also gave a remaining binding at 1 µM [31] of 90% and a remaining binding at 1 µM [32] of 100%.
